How the values were obtained:
[1] = UV-visible absorption and emission spectrum scanning (photophysical property); assay type: physicochemical; conditions: light excitation, FIG. 8
Experimental: A UV-visible absorption spectrum scanning and an emission spectrum scanning were performed on the target product prepared in Embodiment 3, and the scanning results are shown in FIGS. 7 and 8. […] Therefore, the target product may include a deep tissue penetration depth in photodynamic therapy or in vivo fluorescence imaging.

[2] = Detection of superoxide anion free radicals with dihydroethidium (DHE) probe under irradiation; assay type: physicochemical; conditions: water solution 10 μM, air atmosphere, 700 nm LED 1.25 mW/cm^2
Experimental: Under an air atmosphere, dihydroethidium (DHE) was added to a water solution (10 μM) of the target product prepared in Embodiment 3 as a probe of superoxide anion free radicals, and an irradiation condition was a 700 nm light-emitting diode lamp of 1.25 mW/cm^2, a fluorescence of ethidium oxide generated by an oxidation of the DHE by the superoxide radicals was detected, and a fluorescence intensity enhanced with the increase of an irradiation time.

[3] = Detection of singlet oxygen with 1,3-diphenylisobenzofuran (DPBF) capture spectrophotometry; assay type: physicochemical; conditions: DPBF absorbance at 416 nm, 700 nm LED 1.25 mW/cm^2
From the text: A phosphorescence emission of singlet oxygen was easily quenched by water molecules, and the singlet oxygen generated by the target product was detected by using chemical capture spectrophotometry. 1,3-diphenylisobenzofuran (DPBF) was one of the most commonly used singlet oxygen capture agents, and 1,3-diphenylisobenzofuran reacted with the singlet oxygen rapidly to generate a colorless substance, and a content of the singlet oxygen may be reflected by detecting a variation of an absorbance of the 1,3-diphenylisobenzofuran (DPBF) at a characteristic absorption peak (416 nm) using the UV-visible absorption spectrum. An irradiation condition was a 700 nm light-emitting diode (LED) lamp of 1.25 mW/cm^2, a characteristic absorption of the 1,3-diphenylisobenzofuran (DPBF) at the characteristic absorption peak of 416 nm was gradually weakened.

[4] = Monitoring of self-degradation / photodegradation of the photosensitizer in solution (UV-vis, emission, HPLC); assay type: physicochemical
Experimental: In the test of Embodiment 7, an irradiation condition was the 700 nm light-emitting diode lamp of 1.25 mW/cm^2 for 0 min-2 min, the characteristic absorption of 1,3-diphenylisobenzofuran (DPBF) at the characteristic absorption peak of 416 nm was gradually weakened.
The target product obtained in Embodiment 3 was placed under a light-emitting diode lamp for irradiation, and an irradiation condition was 700 nm of 10 mW/cm^2, and the UV-visible absorption spectrum and an emission spectrum of the target product were recorded during irradiation.
As a control, the reference compound prepared in Embodiment 4 was placed under a light-emitting diode lamp for irradiation, the irradiation condition was 640 nm, 10 mW/cm^2, and the UV-visible absorption spectrum and the emission spectrum of the reference compound were recorded during irradiation.

[5] = tested on: HeLa human cervical cancer cells; assay: Detection of cellular phototoxicity (CCK-8 cell viability); assay type: cell-based; conditions: 700 nm LED 2.5 mW/cm^2 for 10 min
Experimental: The cells used in the experiment were HeLa human cervical cancer cells. Cell culture was performed in a DMEM complete culture medium (purchased from Genye, 500 mL) supplemented with 10% inactivated fetal bovine serum (purchased from Shuohua, 500 mL) with 1% penicillin-streptomycin (purchased from Corning, 100 mL) at a temperature of 37° C. and an atmosphere of 5% carbon dioxide.
Sub-cultured Hela cells were digested by trypsin and dispersed in the culture medium at an appropriate concentration. […]
100 μL of PBS buffer was added to each well, and an irradiation condition was a 700 nm light-emitting diode lamp of 2.5 mW/cm^2 for 10 min. […] During this process, a monosodium salt of 2-(2-methoxy-4-nitrophenyl)-3-(4-nitrophenyl)-5-(2,4-disulfonate phenyl)-2H-tetrazolium (WST-8) in the CCK-8 reagent with an electron coupling reagent may be reduced to a water-soluble yellow formazan product by living cells, which causes an absorbance of the solution at 450 nm to vary, and values of variation may be proportional to a count of living cells. The variation of the absorbance at 450 nm of each well was measured using an enzyme labeling apparatus, and a cell viability at each incubation concentration was calculated according to a formula: […]

[6] = tested on: HeLa human cervical cancer cells; assay: Medicine phototherapy at an animal level (subcutaneous tumor model); assay type: in vivo, BALB/C nude mice; conditions: 0.2 mg/kg in situ injection, 2 weeks
Experimental: All animal experiments in the in vivo experiments were performed in strict compliance with the Chinese regulations for animal experiments using BALB/C nude mice, 5 weeks of age of the mouse, male, and a range of 16 g-25 g of body weight. Each mouse was subcutaneously inoculated with 100 uL of HeLa human cervical cancer cells in the right hind limb (5×10^6) to construct the tumor model, and the experiments were performed two weeks later.
Mice were randomly grouped by number, and the experiment was divided into an irradiation control group (including irradiation), a dark control group (including a target product; and a degradation product), and an experimental group (including target product+irradiation; and degradation product+irradiation), with six mice in each group. The dark control and experimental groups were administered by in situ injection, respectively: a dose of 0.2 mg/kg was administered, and 20 μL (0.2 mg/ml) of PBS solution of the target product or degradation product was injected in situ. After 30 min, the irradiation control and experimental groups were irradiated, and an irradiation condition was a 700 nm light-emitting diode lamp of 100 mW/cm^2, and 10 min of irradiation per mouse. The six mice were not given a light-avoidance process after therapy and were put into rearing cages to continue to feed, and every two days, a tumor volume was measured by vernier calipers and the body weight was weighed. The mice were therapized for 2 weeks.

[7] = Photosensitization side effects of a photosensitizer at an animal level; assay type: in vivo, BALB/C nude mice; conditions: 0.2 mg/kg subcutaneous, site irradiated 10 min (700 nm target product, 640 nm reference compound, 100 mW/cm^2), then simulated natural light 10 mW/cm^2 for 1 hour
Experimental: All animal experiments in the in vivo experiments were performed in strict compliance with the Chinese regulations for animal experiments, using BALB/C nude mice, 5 weeks of age of the mouse, male, and a range of 16 g-25 g of body weight.
The mice were randomly grouped by number, and the experiment was divided into a target product group, a reference compound group, and an irradiation control group, with 3 mice in each group. Each of the mice was injected subcutaneously into an abdomen with 20 μL (0.2 mg/mL) of the target product, reference compound solution, or PBS solution, and an administered dose was 0.2 mg/kg. After the injection, a site of administration was irradiated, an irradiation condition of the target product was a 700 nm light-emitting diode lamp, and an irradiation condition of the reference compound was a 640 nm light-emitting diode lamp of 100 mW/cm^2, each of the mice was irradiated for 10 min, and no processing was performed in the irradiation control group. The state of the mouse was observed and a body temperature of the mouse was recorded with a thermal imager. Further, the three groups of mice were exposed to a simulated natural light of 10 mW/cm^2 and irradiated for 1 hour.

## C[N+](C)(C)c1c(F)c(F)c(C2=C3C(=O)OC4=[N+]3[Zn]35[n]6c2ccc6-c2c(oc6c(F)c([N+](C)(C)C)c(F)c(F)c26)[N+]3=c2oc3c(F)c([N+](C)(C)C)c(F)c(F)c3c2=c2ccc([n]25)=C4c2c(F)c(F)c([N+](C)(C)C)c(F)c2F)c(F)c1F (stereo not drawn) [target product]
[1]
  fluorescence spectrum region: in the near-infrared region
[2]
  generation of superoxide anion free radicals: ability to generate the superoxide anion free radicals under irradiation
[3]
  generation of singlet oxygen: ability to produce singlet oxygen under irradiation
[4]; 700 nm LED 2.5 mW/cm^2 for 0 min-10 min, FIG. 15
  photodegradation process monitored by HPLC: able to self-degrade and gradually be converted into the degradation product
[4]; 700 nm LED 10 mW/cm^2, FIGS. 29-30
  photodegradation in solution (absorption and emission spectra during irradiation): degraded under irradiation
[4]; 700 nm LED 10 mW/cm^2 for 2 min-4 min, FIG. 13
  degradation under irradiation (characteristic absorption at 440 nm and 710 nm): degraded under irradiation
[4]; FIG. 14
  photodegradation rate as a function of irradiation intensity: accelerated with the increase in irradiation intensity
[5]; 0 μM-4 μM, FIGS. 16-17
  cellular phototoxicity: relatively strong cellular phototoxicity under irradiation
[5]; Homo sapiens, 24 h incubation, CCK-8, read-out: half-lethal concentration IC50
  IC50: 1000 nM
[6]; 700 nm LED 100 mW/cm^2 10 min
  body weight, with irradiation: no significant weight loss
[6]; 700 nm LED 100 mW/cm^2 10 min single irradiation
  tumor growth (tumor volume), with irradiation: effectively inhibited a growth of a subcutaneous tumor
[6]; no irradiation
  body weight, dark control: no significant weight loss
  tumor growth (tumor volume), dark control: grows rapidly
[7]
  body temperature after natural light (thermal imager): no significant variation
  reactions / photosensitization side effects after natural light: did not exhibit abnormal reactions
